{"source": "patent US8436049B2", "about": "“Uses of pentamidine and related compounds” (State of Oregon Acting By and Through the State Board of …, priority 2008, dated 2013)", "key": {"[1]": {"target": "T1, MBNL-cTNT interaction (Homo sapiens, UniProt Q9NR56)", "T1 construct": "Both the full length MBNL and MBNL (1-260) constructs were cloned using BamHI and NotI restriction sites; GST (N, cleaved yes); made in house; host or cells: E. coli BL21-Star", "T1 sequence (Q9NR56 1-382 isoform Q9NR56-5)": "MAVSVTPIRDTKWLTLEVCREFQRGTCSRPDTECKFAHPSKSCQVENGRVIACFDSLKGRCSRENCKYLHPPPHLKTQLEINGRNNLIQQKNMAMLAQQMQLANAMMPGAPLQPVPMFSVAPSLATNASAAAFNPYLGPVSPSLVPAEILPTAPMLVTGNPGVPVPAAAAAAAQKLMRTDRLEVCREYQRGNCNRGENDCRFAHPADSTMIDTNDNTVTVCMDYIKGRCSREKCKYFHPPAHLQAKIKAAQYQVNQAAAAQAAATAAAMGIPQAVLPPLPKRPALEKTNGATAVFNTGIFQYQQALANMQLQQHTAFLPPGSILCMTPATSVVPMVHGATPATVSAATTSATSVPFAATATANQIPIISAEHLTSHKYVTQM", "test": "Gel shift assay, disruption of MBNL binding to cTNT pre-mRNA site", "settings": "read-out: EC50 for disruption of MBNL binding to cTNT target construct", "protocol": "Solutions for the protein-RNA binding experiments contained 125 mM NaCl, 5 mM MgCl2, 20 mM Tris (pH 7.5), 7.5% glycerol, 2 mg/ml bovine serum albumin, and 0.1 mg/ml heparin. Prior to incubation, RNA substrates were annealed by incubation at 95° C. for 2 minutes and then placed directly on ice for 20 minutes in 66 mM NaCl, 6.7 mM MgCl2, and 27 mM Tris (pH 7.5). Protein was then added to the RNA in the presence or absence of the small molecule. The binding reaction was carried out in a 10 μL volume and was incubated for 10 minutes at room temperature before 2-4 μL were loaded on a pre-chilled 4° C. gel. […]\nFor binding curves, gels were quantified using ImageQuant® software (Molecular Dynamics, Piscataway, N.J.). The percent RNA bound was determined by taking the ratio of RNA-protein complex to total RNA, per lane. […] Binding curves were graphed using KaleidaGraph software (Synergy Software, Reading, Pa.). For the neomycin B and CUG8 gel shift, the apparent Kd was determined using Equation 1, where Y=fraction bound, m0=small molecule concentration, m1=total RNA concentration, and m2=Kd. […]\nPentamidine has been shown previously to bind to other RNAs and DNAs (Zhang et al., RNA 6:937-951, 2000); therefore, we determined pentamidine binding to an endogenous target of MBNL. […]"}, "[2]": {"tested_on": "PLEKHH2 minigene in HeLa cells", "test": "PLEKHH2 minigene splicing in HeLa cells", "assay_type": "cell-based", "settings": "with or without CUG repeats", "protocol": "HeLa cells were grown in monolayers in DMEM with GlutaMAX™ (Gibco, Carlsbad, Calif.) and supplemented with 10% fetal bovine serum. Approximately 2.0 (±0.2)×10^5 cells were plated in 6 well plates and transfected 18-20 hours later at 70-90% confluency. 1 μg of plasmid was transfected into each well of cells, using 5 μL of […] (Invitrogen) according to the manufacturer's protocols. For co-transfection, 1 μg of total plasmid was transfected, at 500 ng of each construct. Test compounds were added 4 hours after transfection, when the media was changed. Cells were harvested 18-22 hours after transfection using TrypLE™ reagent (Gibco).\nImmediately following harvesting, RNA was isolated from the cell pellets using an RNeasy® kit (Qiagen, Valencia, Calif.). 500 ng of isolated RNA was DNased with RQI DNase (Promega, Madison, Wis.) according to manufacture's protocol. 100 ng of DNAsed RNA was reverse transcribed with Superscript® II (Invitrogen, Carlsbad, Calif.) and a cTNT-specific reverse primer according to manufacturer's protocols. 30 ng of the reverse transcription reaction was subjected to 22-25 rounds of PCR amplification using cTNT specific primers spiked with a forward primer 5′ end-labeled with [γ-^32P]ATP. […] The gel was subsequently autoradiographed and quantitation of the radioactive bands was performed using ImageQuant® software. […]"}, "[3]": {"tested_on": "Serca1 pre-mRNA splicing, HSA^LR transgenic mice", "test": "Serca1 exon 22 splicing in vastus muscle of HSA^LR mouse model of DM", "assay_type": "in vivo", "settings": "intraperitoneal, HSA^LR control 17±4%, normal 99.7±0.1%", "experimental": "Mouse handling and experimental procedures were conducted in accordance with the Association for Assessment and Accreditation of Laboratory Animal Care. HSA^LR transgenic mice in line 20b expressing human skeletal actin mRNA with ˜250 CUG repeats in the 3′ UTR were used (Mankodi et al., Science 289:1769-1772, 2000). Age- and gender-matched HSA^LR mice were injected intraperitoneally with pentamidine or saline (control). For a low-dose regimen, 25 mg/kg of pentamidine was administrated twice daily for 5 days. For a higher-dose regimen, 40 mg/kg of pentamidine was injected once daily for 7 days. Mice were sacrificed one day after the last injection, and vastus muscle was obtained for splicing analysis. […] PCR amplification was carried out for 22-24 cycles with the following primer pairs: Clc-1 forward, [sequence] (SEQ ID NO: 7), and reverse, [sequence] (SEQ ID NO: 8); Serca1 forward, [sequence] (SEQ ID NO: 9), and reverse, [sequence] (SEQ ID NO: 10). The PCR products were analyzed on agarose gels and scanned with a laser fluorimager (Typhoon, GE Healthcare, Piscataway, N.J.). Differences between the two groups were evaluated by Student's t-test."}}, "note": "Several values for one entry are separate records, joined by “and”; a condition that tells them apart may be missing. Identical values can stand only once.", "data": [{"smiles": "N=C(N)c1ccc(OCCCCCOc2ccc(C(=N)N)cc2)cc1", "note": "[pentamidine]", "values": [{"measurement": "EC50", "setting": "[1]", "value": "~85 µM and 85 µM"}, {"measurement": "Effect on PLEKHH2 minigene splicing", "setting": "[2]", "value": "Splicing was unchanged"}, {"measurement": "Serca1 exon 22 inclusion", "setting": "[3]; 25 mg/kg twice daily for 5 days", "value": "22±2", "unit": "%"}, {"measurement": "Serca1 exon 22 inclusion", "setting": "[3]; 40 mg/kg once daily for 7 days", "value": "40±4", "unit": "%"}]}]}
